Legend:
[1] = tested on: induced BLEC Jurkat clones; assay: Characterization of induced BLEC Jurkat clones, change in 460/530 ratio; type: cell-based, human; settings: PHA 10 microgram/ml, Thaps 1 microM, PMA 8 nM, Anti-CD3 2 microgram/ml
Excerpt: These clones represent cells in which the trapping construct had integrated into a gene up regulated by PHA (T-cell) activation. Thus, these cells report the transcriptional activation of a gene upon cellular activation. Individual clones were identified and isolated by FACS using CCF2/AM to detect beta-lactamase activity. This clone isolation method, the induced sorting paradigm, used three sequential and independent stimulation and sorting protocols. […] These control cells were all green.
These isolated clones were expanded and tested for PHA inducibility by microscopic inspection with and without PHA stimulation in the presence of CCF2/AM. A total of fifty-five PHA inducible clones were identified using this procedure. The PHA inducibility for these clones ranged from a 1.5 to 40 fold change in the 460/530 ratio as compared to unstimulated control cells. Genomic Southern analysis using a DNA probe encoding beta-lactamase established that these clones represented 34 independent stable vector integration events. A list of clones obtained by the methods of the present invention and their characteristics is provided below in Table 6 and Table 7.
In addition to PHA inducible clones, Phobol 12-myristate 13-acetate (PMA) (Calbiochem), Thapsigargin (Thaps) (Calbiochem), and PMA+Thaps inducible clones were isolated using the general procedure set forth above using the indicated inducer rather than PHA. PMA is a specific activator of PKC (protein kinase C) and Thaps is a specific activator of intracellular calcium ion release (Thaps). These clones were isolated using three rounds of FACS using the general procedures described for the PHA inducible clones in Example 5. In such instances, other stimulants were substituted for PHA. PMA was provided at 8 nM, Thaps was provided at 1 microM. When these two stimulants were combined, their concentration was not changed. […] By using varied selection conditions, it is possible to isolate functionally distinct clones downstream of the desired signaling target.
Table 7 and Table 8 provide data similar to that provided in Table 5 for all of the clones obtained by the methods of Examples 5 to 7.

M1 receptor = biological target: T1, M1 receptor (Homo sapiens, UniProt P11229); type: cell-based; settings: cell line J389PT14/pcDNA3-M1; 30 μM Carbachol, 10 nM PHA; 6 hours; unstimulated = 1
T1 construct: expressed in transfected cells; host or cells: Jurkat-derived BLEC clone J389PT14, transiently transfected by electroporation with pcDNA3-M1
T1 sequence (P11229 whole entry): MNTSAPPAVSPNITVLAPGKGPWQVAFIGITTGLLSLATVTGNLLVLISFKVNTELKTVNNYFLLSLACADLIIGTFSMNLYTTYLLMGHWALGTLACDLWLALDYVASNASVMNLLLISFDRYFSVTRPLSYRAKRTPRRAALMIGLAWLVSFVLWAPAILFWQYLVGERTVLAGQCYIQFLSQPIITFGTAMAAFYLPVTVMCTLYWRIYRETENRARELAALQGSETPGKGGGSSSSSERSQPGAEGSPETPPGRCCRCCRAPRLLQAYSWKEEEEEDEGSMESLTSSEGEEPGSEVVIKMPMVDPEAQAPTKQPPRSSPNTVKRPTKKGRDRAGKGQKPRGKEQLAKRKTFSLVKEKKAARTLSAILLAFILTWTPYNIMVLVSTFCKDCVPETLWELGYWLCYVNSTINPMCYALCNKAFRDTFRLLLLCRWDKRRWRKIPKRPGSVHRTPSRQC
Description: (§1) For example, a calcium-sensitive clone was transfected with a Gq-type GPCR by electroporation. Cells from clone J389PT14 were transfected by electroporation with a plasmid (pcDNA3 (Invitrogen) or pcDNA3-M1 (pcDNA3 that can operably express M1 receptor) to make cell lines J389PTI4/pcDNA3 and J389PTI4/pcDNA3-Ml). […] Thus, the J389PTI4/pcDNA3 cell is a control cell. […] These cells were contacted with CCF-2 dye for another 90 minutes. The 460/530 ratio changes were measured in a Cytoflour (Series 4000 Model) (Perceptive Biosystems) fluorescence plate reader and correspond to reporter gene expression.

[2] = tested on: clone C2 (3×NFAT response element linked to beta-lactamase, M1 muscurinic receptor); assay: Relative beta-lactamase activity of control clone C2; type: cell-based, human; settings: PMA 8 nM, Thaps 1 microM, CsA 100 nM, PHA 10 microgram/ml
Excerpt: (§2) Isolated clones from PHA-induced (Example 6) and PHA-repressed (Example 7) procedures described above were characterized to determine the specificity of their modulation and time required for induction or repression. Clones were stimulated with multiple activators or inhibitors over a one to twenty-four hour time interval.
(§3) In this study, PMA, which is a PKC activator, Thapsigargin which increases intracellular calcium, PHA which activates the T-cell receptor pathway, and cyclosporin A which is a clinically approved immunosuppressant that inhibits the Ca^2+ dependent phosphates calcineurin were investigated for their ability to modulate beta-lactamase expression in PHA induced and repressed BLEC clones.

BLEC Jurkat clones = assay: Specificity of activated BLEC Jurkat clones, relative beta-lactamase activity; type: cell-based, human; settings: PMA 8 nM, Thaps 1 microM, CsA 100 nM, PHA 10 microgram/ml
Excerpt: as §2, §3

J389PT14/pcDNA3 = assay: Beta-lactamase expression in control cell line J389PTI4/pcDNA3; type: cell-based, human; settings: 30 μM Carbachol, 10 nM PHA, 6 hours, unstimulated = 1
Description: as §1

phytohemaglutinin [PHA]
Change in 460/530 ratio in the indicated clone by the following activator ([1]; clone J83PI1): 3-4
Change in 460/530 ratio in the indicated clone by the following activator ([1]; clone J83PI2): 8
Change in 460/530 ratio in the indicated clone by the following activator ([1]; clone J83PI3): 5-6
Change in 460/530 ratio in the indicated clone by the following activator ([1]; clone J83PI4): 34
Change in 460/530 ratio in the indicated clone by the following activator ([1]; clone J83PI6): 6-7
Change in 460/530 ratio in the indicated clone by the following activator ([1]; clone J83PI7): 2
Change in 460/530 ratio in the indicated clone by the following activator ([1]; clone J83PI8): 4-5
Change in 460/530 ratio in the indicated clone by the following activator ([1]; clone J83PI9): 6
Change in 460/530 ratio in the indicated clone by the following activator ([1]; clone J83PI13): 2-3
Change in 460/530 ratio in the indicated clone by the following activator ([1]; clone J83PI14): 2
Change in 460/530 ratio in the indicated clone by the following activator ([1]; clone J83PI15): 3-4
Change in 460/530 ratio in the indicated clone by the following activator ([1]; clone J83PI16): 3-4
Change in 460/530 ratio in the indicated clone by the following activator ([1]; clone J83PI18): 5-6
Change in 460/530 ratio in the indicated clone by the following activator ([1]; clone J83PI19): 5-6
Change in 460/530 ratio in the indicated clone by the following activator ([1]; clone J97PI1): 3-4
Change in 460/530 ratio in the indicated clone by the following activator ([1]; clone J97PI2): 2-3
Change in 460/530 ratio in the indicated clone by the following activator ([1]; clone J97PI3): 1-2
Change in 460/530 ratio in the indicated clone by the following activator ([1]; clone J97PI4): 1-2
Change in 460/530 ratio in the indicated clone by the following activator ([1]; clone J97PI6): 3-4
Change in 460/530 ratio in the indicated clone by the following activator ([1]; clone J97PI7): 3-4
Change in 460/530 ratio in the indicated clone by the following activator ([1]; clone J97PI8): 2.5-3
Change in 460/530 ratio in the indicated clone by the following activator ([1]; clone J97PI9): 2-3
Change in 460/530 ratio in the indicated clone by the following activator ([1]; clone J97PI10): 3-4
Change in 460/530 ratio in the indicated clone by the following activator ([1]; clone J97PI11): 3-4
Change in 460/530 ratio in the indicated clone by the following activator ([1]; clone J97PI12): 3-4
Change in 460/530 ratio in the indicated clone by the following activator ([1]; clone J97PI13): 2-3
Change in 460/530 ratio in the indicated clone by the following activator ([1]; clone J97PI14): 4-5
Change in 460/530 ratio in the indicated clone by the following activator ([1]; clone J97PI15): 1-2
Change in 460/530 ratio in the indicated clone by the following activator ([1]; clone J97PI17): 4-5
Change in 460/530 ratio in the indicated clone by the following activator ([1]; clone J97PI18): 1-2
Change in 460/530 ratio in the indicated clone by the following activator ([1]; clone J97PI19): 2-3
Change in 460/530 ratio in the indicated clone by the following activator ([1]; clone J97PI20): 1-2
Change in 460/530 ratio in the indicated clone by the following activator ([1]; clone J97PI21): 2-3
Change in 460/530 ratio in the indicated clone by the following activator ([1]; clone J97PI22): 5-6
Change in 460/530 ratio in the indicated clone by the following activator ([1]; clone J97PI23): 4-5
Change in 460/530 ratio in the indicated clone by the following activator ([1]; clone J97PI24): 3-4
Change in 460/530 ratio in the indicated clone by the following activator ([1]; clone J97PI116): 2-3
Change in 460/530 ratio in the indicated clone by the following activator ([1]; clone J325B5): 7
Change in 460/530 ratio in the indicated clone by the following activator ([1]; clone J325B11): 9
Change in 460/530 ratio in the indicated clone by the following activator ([1]; clone J325E1): 8
Change in 460/530 ratio in the indicated clone by the following activator ([1]; clone J325E3): 7
Change in 460/530 ratio in the indicated clone by the following activator ([1]; clone J325E6): 11
Change in 460/530 ratio in the indicated clone by the following activator ([1]; clone J325G4): 3-4
Change in 460/530 ratio in the indicated clone by the following activator ([1]; clone J326C9): 4-5
Change in 460/530 ratio in the indicated clone by the following activator ([1]; clone J326D4): 10
Change in 460/530 ratio in the indicated clone by the following activator ([1]; clone J326D7): 10
Change in 460/530 ratio in the indicated clone by the following activator ([1]; clone J326F7): 10
Change in 460/530 ratio in the indicated clone by the following activator ([1]; clone J326H4): 10
Change in 460/530 ratio in the indicated clone by the following activator ([1]; clone J389PM2): 4-5
Change in 460/530 ratio in the indicated clone by the following activator ([1]; clone J389PM3): 3
Change in 460/530 ratio in the indicated clone by the following activator ([1]; clone J389PM5): 4-5
Change in 460/530 ratio in the indicated clone by the following activator ([1]; clone J389PM7): 1-2
Change in 460/530 ratio in the indicated clone by the following activator ([1]; clone J389PM8): 2-3
Change in 460/530 ratio in the indicated clone by the following activator ([1]; clone J389PT4): 15
Change in 460/530 ratio in the indicated clone by the following activator ([1]; clone J389PTt): 5-6
Change in 460/530 ratio in the indicated clone by the following activator ([1]; clone J389TI1): 1-2
Change in 460/530 ratio in the indicated clone by the following activator ([1]; clone J389TI4): 0
Relative expression of beta-lactamase in cells exposed to the indicated stimuli (M1 receptor): 13
Relative Beta-Lactamase Activity of the Clone by the Indicated Stimulus After 24 hours (% of maximum activated stimuli) [2]: 30%
Relative Beta-Lactamase Activity of the Clone by the Indicated Stimulus After 24 hours (% of maximum activated stimuli) (BLEC Jurkat clones; clone J32-6D4): 80%
Relative Beta-Lactamase Activity of the Clone by the Indicated Stimulus After 24 hours (% of maximum activated stimuli) (BLEC Jurkat clones; clone J83 97-PPTR2 (repressed paradigm)): 67%
Relative Beta-Lactamase Activity of the Clone by the Indicated Stimulus After 24 hours (% of maximum activated stimuli) (BLEC Jurkat clones; clone J83-PI9): 60%
Relative Beta-Lactamase Activity of the Clone by the Indicated Stimulus After 24 hours (% of maximum activated stimuli) (BLEC Jurkat clones; clone J83-PTI8): 60%
Relative Beta-Lactamase Activity of the Clone by the Indicated Stimulus After 24 hours (% of maximum activated stimuli) (BLEC Jurkat clones; clone J389-PTI4): 85%
Relative expression of beta-lactamase in cells exposed to the indicated stimuli (J389PT14/pcDNA3): 12
